Source: patent US7618663B2, “Anti-arthritic herbal composition and method thereof” (priority 2004, dated 2009)
Marks after values point to notes of the source that are not given here.

Assays:
[1] = system: formaldehyde-induced arthritis; assay: formaldehyde-induced acute arthritis, paw edema; assay type: in vivo, rat; conditions: dose 30 mg/kg; given 24 hours before formalin and continued for 13 days; mean ± S.E.M., six rats
Method: Formaldehyde-induced arthritis was produced in rats by injecting 0.1 ml of 2% formaldehyde in the hind paw under the planter aponeurosis. Paw volume was measured daily for 13 days. The test composition was given 24 hours before formalin injection and continued for 13 days.

stomach = conditions: known side effect of the drug; cited from earlier work
[2] = system: formalin arthritis and granuloma pouch; conditions: cited from earlier work

SMILES	% Edema (Swelling) [1]	ulcer in the stomach (stomach)	mortality rate ([2]; albino rats)	gastric side effects-ulcer and bleeding ([2]; rats)
CC(C)Cc1ccc(C(C)C(=O)O)cc1 (stereo not shown) [Ibuprofen]	27.80 ± 4.2^b %	causes ulcer in the stomach	–	–
C[C@H]1C[C@H]2[C@@H]3CCC4=CC(=O)C=C[C@]4(C)[C@@]3(F)[C@@H](O)C[C@]2(C)[C@@]1(O)C(=O)CO [betamethasone]	–	–	12 out of 29	10 out of 12
